Measurements as given in patent US20050153870A1, “Medicinal composition for diagnosis, prevention, or therapy of multiple risk factor syndrome” (priority 2002, published 2005).

Test system: non-insulin dependent type II diabetes patients
Assay: Clinical test II
Assay type: in vivo, human
Conditions: for Fasting blood sugar: before medication 108.8 ± 15.10; for number of patients with fasting blood sugar level No change or increase / number of patients with reduction rate of fasting blood sugar level 20-10% / number of patients with reduction rate of fasting blood sugar level <10% / number of patients with reduction rate of fasting blood sugar level >20% / number of patients with total serum cholesterol No change or increase / number of patients with total serum cholesterol decreasing rate 20-10% / number of patients with total serum cholesterol decreasing rate <10% / number of patients with total serum cholesterol decreasing rate >20%: 12 weeks
Procedure: On the other hand, Clinical test II was performed in a group of 79 participants from non-insulin dependent diabetic patients.
79 non-insulin dependent type II diabetes patients whose blood sugar is well-controlled under dietary therapy (all were mongoloid Japanese) participated in Clinical test II. They were forbidden to use sulfonyl urea and biguanide agent which is a therapeutic agent for type II diabetes, and a fibrate series medicament, nicotinic acid, and probucol which is a serum fat decreasing agent; however use of an antihypertensive agent is not particularly prohibited. They participated on a voluntary basis after they signed informed consent for clinical test participation, which was proposed by a medical institution based on the Helsinki declaration. The participants consisted of 26 males and 53 females. An average age at the sign-up time was 58±9.9 years old (average value±standard deviation), ranging from 37 to 81 years old. The body weight of patients was divided by standard body weight obtained from the standard body-weight table issued by Meiji life Insurance Company. This index was 1.24±0.154 (average value±standard deviation) at the sign-up time, meaning that there are many obese persons. After 12 weeks, the body weight index decreased to 1.18±0.137(average value±standard deviation).
The number of patients having normal blood pressure was 58 (of them, 31 patients were taking an antihypertensive agent).

[1] = Normal blood sugar group FBS < 130 mg/dl, 12th week
[2] = body weight fluctuation: No change or increase (total 29)
[3] = body weight fluctuation: No change or increase (total 31)
[4] = body weight fluctuation: Reduction of 3 kg or less (total 24)
[5] = body weight fluctuation: Reduction of 3 kg or less (total 25)
[6] = body weight fluctuation: Reduction of 3 kg or more (total 13)
[7] = body weight fluctuation: Reduction of 3 kg or more (total 18)

## COc1c(Cl)c(C)c(C=O)c(O)c1C/C=C(C)/C=C/[C@@]1(C)[C@H](C)CCC(=O)[C@@H]1C [4-O-methylascochlorin]
Normal blood sugar group FBS < 130 mg/dl, 8th week
  Fasting blood sugar: 109.0 ± 17.34 mg/dL
[1]
  Fasting blood sugar, change vs before medication: ns (n = 25)
  Fasting blood sugar: 106.4 ± 17.80 mg/dL
Normal group <220 mg/dl, 4th week, before medication 188.9 ± 21.55
  Total serum cholesterol: 177.9 ± 31.91 mg/dL
Normal group <220 mg/dl, 4th week, ns. = No significant difference
  Total serum cholesterol, change vs before medication: ns. (n = 14)
Normal group <220 mg/dl, 8th week, before medication 188.9 ± 21.55
  Total serum cholesterol: 176.0 ± 36.33 mg/dL
Normal group <220 mg/dl, 8th week, ns. = No significant difference
  Total serum cholesterol, change vs before medication: ns. (n = 14)
Normal group <220 mg/dl, 12th week, before medication 188.9 ± 21.55
  Total serum cholesterol: 181.2 ± 32.10 mg/dL
Normal group <220 mg/dl, 12th week, ns. = No significant difference
  Total serum cholesterol, change vs before medication: ns. (n = 18)
Super high cholesterol group >300 mg/dl, 4th week
  Total serum cholesterol, change vs before medication: −20.0% (n = 20)
Super high cholesterol group >300 mg/dl, 4th week, before medication 348.8 ± 56.36
  Total serum cholesterol: 273.8 ± 29.38 mg/dL
Super high cholesterol group >300 mg/dl, 8th week
  Total serum cholesterol, change vs before medication: −28.9% (n = 20)
Super high cholesterol group >300 mg/dl, 8th week, before medication 348.8 ± 56.36
  Total serum cholesterol: 248.5 ± 36.01 mg/dL
Super high cholesterol group >300 mg/dl, 12th week
  Total serum cholesterol, change vs before medication: −30.0% (n = 21)
Super high cholesterol group >300 mg/dl, 12th week, before medication 348.8 ± 56.36
  Total serum cholesterol: 244.2 ± 36.59 mg/dL
Abnormal high value group, greater than 120 mg/dl
  Serum neutral fat: significantly decreased
After 12 weeks, at the sign-up time 1.24±0.154
  body weight index (body weight divided by standard body weight): 1.18±0.137
[2]
  number of patients with fasting blood sugar level No change or increase: 11
  number of patients with reduction rate of fasting blood sugar level 20-10%: 8
  number of patients with reduction rate of fasting blood sugar level <10%: 7
  number of patients with reduction rate of fasting blood sugar level >20%: 3
[3]
  number of patients with total serum cholesterol No change or increase: 11
  number of patients with total serum cholesterol decreasing rate 20-10%: 6
  number of patients with total serum cholesterol decreasing rate <10%: 5
  number of patients with total serum cholesterol decreasing rate >20%: 9
[4]
  number of patients with fasting blood sugar level No change or increase: 4
  number of patients with reduction rate of fasting blood sugar level 20-10%: 8
  number of patients with reduction rate of fasting blood sugar level <10%: 6
  number of patients with reduction rate of fasting blood sugar level >20%: 6
[5]
  number of patients with total serum cholesterol No change or increase: 4
  number of patients with total serum cholesterol decreasing rate 20-10%: 2
  number of patients with total serum cholesterol decreasing rate <10%: 1
  number of patients with total serum cholesterol decreasing rate >20%: 18
[6]
  number of patients with total serum cholesterol No change or increase: 1
  number of patients with total serum cholesterol decreasing rate 20-10%: 0
  number of patients with total serum cholesterol decreasing rate <10%: 1
  number of patients with total serum cholesterol decreasing rate >20%: 11
[7]
  number of patients with fasting blood sugar level No change or increase: 3
  number of patients with reduction rate of fasting blood sugar level 20-10%: 3
  number of patients with reduction rate of fasting blood sugar level <10%: 4
  number of patients with reduction rate of fasting blood sugar level >20%: 8
Borderline hypertensive patients (n = 14), 4th week, before medication 92 ± 3.0
  Blood pressure, Diastolic period: 86 ± 2.4 mmHg
Borderline hypertensive patients (n = 14), 4th week, before medication 156 ± 5.4
  Blood pressure, Systolic period: 149 ± 3.8 mmHg
Borderline hypertensive patients (n = 14), 8th week, before medication 92 ± 3.0
  Blood pressure, Diastolic period: 86 ± 3.3 mmHg
Borderline hypertensive patients (n = 14), 8th week, before medication 156 ± 5.4
  Blood pressure, Systolic period: 147 ± 3.3 mmHg
Borderline hypertensive patients (n = 14), 12th week, before medication 92 ± 3.0
  Blood pressure, Diastolic period: 86 ± 4.1 mmHg
Borderline hypertensive patients (n = 14), 12th week, before medication 156 ± 5.4
  Blood pressure, Systolic period: 149 ± 5.5 mmHg
Group having a fasting blood sugar level of greater than 130 mg/dl
  blood sugar decreasing effect: has a significant blood sugar decreasing effect
Group with serum neutral fat <120 mg/dl, 4th week
  Serum neutral fat, change vs before medication: −9.3% (n = 6)
Group with serum neutral fat <120 mg/dl, 4th week, before medication 96.2 ± 12.57
  Serum neutral fat: 88.5 ± 32.93 mg/dL
Group with serum neutral fat <120 mg/dl, 8th week
  Serum neutral fat, change vs before medication: −15.7% (n = 7)
Group with serum neutral fat <120 mg/dl, 8th week, before medication 96.2 ± 12.57
  Serum neutral fat: 85.7 ± 24.64 mg/dL
Group with serum neutral fat <120 mg/dl, 12th week
  Serum neutral fat, change vs before medication: −5.2% (n = 8)
Group with serum neutral fat <120 mg/dl, 12th week, before medication 96.2 ± 12.57
  Serum neutral fat: 90.3 ± 22.32 mg/dL
Group with serum neutral fat >120 mg/dl, 4th week
  Serum neutral fat, change vs before medication: −15.5% (n = 56)
Group with serum neutral fat >120 mg/dl, 4th week, before medication 215.7 ± 83.96
  Serum neutral fat: 182.6 ± 68.26 mg/dL
Group with serum neutral fat >120 mg/dl, 8th week
  Serum neutral fat, change vs before medication: −23.2% (n = 52)
Group with serum neutral fat >120 mg/dl, 8th week, before medication 215.7 ± 83.96
  Serum neutral fat: 172.7 ± 62.84 mg/dL
Group with serum neutral fat >120 mg/dl, 12th week
  Serum neutral fat, change vs before medication: −25.4% (n = 61)
Group with serum neutral fat >120 mg/dl, 12th week, before medication 215.7 ± 83.96
  Serum neutral fat: 167.8 ± 72.93 mg/dL
Hypertension group, 4 weeks after medication, text: no significant difference
  decrease of systolic pressure: 10 mmHg
Hypertensive patients (n = 7), 4th week, before medication 97 ± 3.0
  Blood pressure, Diastolic period: 91 ± 3.0 mmHg
Hypertensive patients (n = 7), 4th week, before medication 175 ± 10.4
  Blood pressure, Systolic period: 165 ± 15.6 mmHg
Hypertensive patients (n = 7), 8th week, before medication 97 ± 3.0
  Blood pressure, Diastolic period: 90 ± 5.1 mmHg
Hypertensive patients (n = 7), 8th week, before medication 175 ± 10.4
  Blood pressure, Systolic period: 161 ± 13.9 mmHg
Hypertensive patients (n = 7), 12th week, before medication 97 ± 3.0
  Blood pressure, Diastolic period: 89 ± 4.0 mmHg
Hypertensive patients (n = 7), 12th week, before medication 175 ± 10.4
  Blood pressure, Systolic period: 158 ± 15.7 mmHg
Normal blood sugar group, fasting blood sugar level of 130 mg/dl or less
  blood sugar decreasing effect: does not have a blood sugar decreasing effect
Normal group, serum total cholesterol 220 mg/dl or less
  concentration of serum cholesterol: did not change the concentration of serum cholesterol significantly
Normal value group, 120 mg/dl or less
  Serum neutral fat: only a tendency to decrease
Patients of type II diabetes complicated with borderline hypertensive
  antihypertensive effect: highly significant antihypertensive effect
Super high value group and high value group
  total cholesterol values: further significantly decreased
